Tests used:
human RXFP1 = target: T1, human RXFP1 (Homo sapiens, UniProt Q9HBX9); experiment: human RXFP1 (hRXFP1) HEK293 cAMP assay (HTRF); format: cell-based; settings: HEK293 cells stably expressing human RXFP1, 30 min at room temperature
T1 construct: expressed in transfected cells
T1 sequence (Q9HBX9 1-757): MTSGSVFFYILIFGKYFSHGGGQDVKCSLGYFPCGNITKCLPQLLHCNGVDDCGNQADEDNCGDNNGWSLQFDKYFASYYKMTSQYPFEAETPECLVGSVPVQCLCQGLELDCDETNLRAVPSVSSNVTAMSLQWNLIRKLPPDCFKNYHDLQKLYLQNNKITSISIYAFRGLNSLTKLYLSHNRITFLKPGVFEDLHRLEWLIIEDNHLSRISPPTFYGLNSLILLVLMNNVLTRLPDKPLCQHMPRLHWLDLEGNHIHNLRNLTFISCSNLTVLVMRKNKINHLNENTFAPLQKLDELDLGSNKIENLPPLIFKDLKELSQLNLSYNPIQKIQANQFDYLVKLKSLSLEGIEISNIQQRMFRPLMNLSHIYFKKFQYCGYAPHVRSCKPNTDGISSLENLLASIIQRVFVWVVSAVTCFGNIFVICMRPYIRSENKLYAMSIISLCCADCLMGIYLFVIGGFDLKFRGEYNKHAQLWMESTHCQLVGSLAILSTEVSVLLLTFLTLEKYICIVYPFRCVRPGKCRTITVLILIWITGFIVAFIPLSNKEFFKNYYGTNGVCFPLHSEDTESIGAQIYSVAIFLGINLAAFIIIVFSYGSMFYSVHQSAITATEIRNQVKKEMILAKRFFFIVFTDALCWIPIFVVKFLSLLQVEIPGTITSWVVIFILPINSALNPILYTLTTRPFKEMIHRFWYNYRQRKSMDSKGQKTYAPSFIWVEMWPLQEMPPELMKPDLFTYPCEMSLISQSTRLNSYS
Method in brief: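 Intracellular cAMP was quantified by HTRF after a 30 min room-temperature exposure of hRXFP1-HEK293 cells (1500/well) to compound at 0.010 nM–50 µM final, 2% DMSO. Buffer was HBSS with 20 mM HEPES, 0.05% BSA and 0.5 mM IBMX; values came from a 4-parameter logistic fit.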

[1] = intravenous (IV) formulation; cited from earlier work

Compound	EC50 (human RXFP1) [nM]	first-phase pharmacokinetic half-life [1] [min]
CC(O)C1CC2ON=C(c3cc4c(c(C(=O)N[C@H]5[C@@H](C(=O)Nc6ccc(F)c(C(F)(F)F)c6)[C@H]6CC[C@@H]5/C6=C\C5CC5)c3)OC(C)(C)C4)C2C1 (stereo partly drawn) [Example 175, N-[(1R,2R,3S,4R, 7Z)-7-(cyclopropyl-methylidene)-3-{[4-fluoro-3-(trifluoromethyl)phenyl]carbamoyl}bicyclo[2.2.1]heptan-2-yl]-5-[5-(1-hydroxyethyl)-3aH,4H,5H,6H, 6aH-cyclopenta[d][1,2]oxazol-3-yl]-2,2-dimethyl-2,3-dihydro-1-benzofuran-7-carboxamide]	7.8	–
CC(O)C1CC2ON=C(c3cc4c(c(C(=O)N[C@H]5[C@@H](C(=O)N[C@H](C)C6(C)CC6)[C@H]6CC[C@@H]5/C6=C\C5CC5)c3)OC(C)(C)C4)C2C1 (stereo partly drawn) [Example 176, N-[(1R,2R,3S,4R, 7Z)-7-(cyclopropyl-methylidene)-3-{[(1R)-1-(1-methylcyclopropyl)ethyl]carbamoyl}bicyclo[2.2.1]heptan-2-yl]-5-[5-(1-hydroxyethyl)-3aH,4H,5H,6H, 6aH-cyclopenta[d][1,2]oxazol-3-yl]-2,2-dimethyl-2,3-dihydro-1-benzofuran-7-carboxamide]	6	–
COc1ncc(C2=NOC3CC(C)(CO)CC23)cc1C(=O)N[C@H]1[C@@H](C(=O)N[C@H](C)C2(C)CC2)[C@H]2CC[C@@H]1/C2=C\C1CC1 (stereo partly drawn) [Example 177, N-[(1R,2R,3S,4R, 7Z)-7-(cyclopropyl-methylidene)-3-{[(1R)-1-(1-methylcyclo-propyl)ethyl]carbamoyl}bicyclo[2.2.1]heptan-2-yl]-5-[5-(hydroxymethyl)-5-methyl-3aH,4H,5H,6H, 6aH-cyclopenta[d][1,2]oxazol-3-yl]-2-methoxypyridine-3-carboxamide]	3.3	–
CC(C)(O)CN1CC2ON=C(c3cc4c(c(C(=O)N[C@H]5[C@@H](C(=O)Nc6ccc(F)c(C(F)(F)F)c6)[C@H]6CC[C@@H]5/C6=C\C5CC5)c3)OC(C)(C)C4)C2C1 (stereo partly drawn) [Example 179, N-[(1R,2R,3S,4R, 7Z)-7-(cyclopropyl-methylidene)-3-{[4-fluoro-3-(trifluoromethyl)phenyl]carbamoyl}bicyclo[2.2.1]heptan-2-yl]-5-[5-(2-hydroxy-2-methylpropyl)-3aH,4H,5H,6H, 6aH-pyrrolo[3,4-d][1,2]oxazol-3-yl]-2,2-dimethyl-2,3-dihydro-1-benzofuran-7-carboxamide]	6.5	–
COc1ncc(C2=NOC3CN(CC(O)C(F)(F)F)CC23)cc1C(=O)N[C@H]1[C@@H](C(=O)Nc2ccc(F)c(C(F)(F)F)c2)[C@H]2CC[C@@H]1/C2=C\C1CC1 (stereo partly drawn) [Example 180, N-[(1R,2R,3S,4R, 7Z)-7-(cyclopropyl-methylidene)-3-{[4-fluoro-3-(trifluoromethyl)phenyl]carbamoyl}bicyclo[2.2.1]heptan-2-yl]-2-methoxy-5-[5-(3,3,3-trifluoro-2-hydroxypropyl)-3aH,4H,5H,6H, 6aH-pyrrolo[3,4-d][1,2]oxazol-3-yl]pyridine-3-carboxamide]	4.3	–
COc1ncc(-c2cc([C@H](OC(=O)N3CC4(COC4)C3)C(F)(F)F)ccc2F)cc1C(=O)N[C@@H]1C2CCC(/C2=C/C2CC2)[C@@H]1C(=O)Nc1ccc(F)c(C(F)(F)F)c1 (stereo partly drawn) [Example 184, (1S)-1-[3-(5-{[(2R,3S,7Z)-7-(cyclopropyl-methylidene)-3-{[4-fluoro-3-(trifluoromethyl)phenyl]carbamoyl}bicyclo[2.2.1]heptan-2-yl]carbamoyl}-6-methoxypyridin-3-yl)-4-fluorophenyl]-2,2,2-trifluoroethyl 2-oxa-6-azaspiro[3.3] heptane-6-carboxylate]	4.8	–
COc1ncc(-c2cc([C@H](OC(=O)N3CCS(=O)(=O)CC3)C(F)(F)F)ccc2F)cc1C(=O)N[C@@H]1C2CCC(/C2=C/C2CC2)[C@@H]1C(=O)Nc1ccc(F)c(C(F)(F)F)c1 (stereo partly drawn) [Example 187, (1S)-1-[3-(5-{[(2R,3S,7Z)-7-(cyclopropyl-methylidene)-3-{[4-fluoro-3-(trifluoromethyl)phenyl]carbamoyl}bicyclo[2.2.1]heptan-2-yl]carbamoyl}-6-methoxypyridin-3-yl)-4-fluorophenyl]-2,2,2-trifluoroethyl 1,1-dioxo-1λ^6-thiomorpholine-4-carboxylate]	5.3	–
N- ((1R,2R,3S,4R,Z)- 3-((4-fluoro-3- (trifluoromethyl) phenyl)carbamoyl)- 7-3- hydroxy- propylidene) bicyclo[2.2.1] heptan-2-yl)-5-(5- (hydroxymethyl)- 3a,5,6,6a- tetrahydro-4H- cyclopenta[d] isoxazol-3-yl)-2- methoxy- nicotinamide [Example 114]	1.2	–
Serelaxin	–	5.4

Second part, led by results:

EC50 (human RXFP1) [nM]	Compound	first-phase pharmacokinetic half-life [1] [min]
1.6	COc1ncc(C2=NOC3CN(CCS(C)(=O)=O)CC23)cc1C(=O)N[C@H]1[C@@H](C(=O)Nc2ccc(F)c(C(F)(F)F)c2)[C@H]2CC[C@@H]1/C2=C\C1CC1 (stereo partly drawn) [Example 178, N-[(1R,2R,3S,4R, 7Z)-7-(cyclopropyl-methylidene)-3-{[4-fluoro-3-(trifluoromethyl)phenyl]carbamoyl}bicyclo[2.2.1]heptan-2-yl]-5-[5-(2-methanesulfonylethyl)-3aH,4H,5H,6H, 6aH-pyrrolo[3,4-d][1,2]oxazol-3-yl]-2-methoxypyridine-3-carboxamide]	–
2.6	CNC(=O)O[C@@H](c1ccc(F)c(-c2cnc(OC)c(C(=O)N[C@@H]3C4CCC(/C4=C/C4CC4)[C@@H]3C(=O)Nc3ccc(F)c(C(F)(F)F)c3)c2)c1)C(F)(F)F (stereo partly drawn) [Example 182, (1S)-1-[3-(5-{[(2R,3S,7Z)-7-(cyclopropyl-methylidene)-3-{[4-fluoro-3-(trifluoromethyl)phenyl]carbamoyl}bicyclo[2.2.1]heptan-2-yl]carbamoyl}-6-methoxypyridin-3-yl)-4-fluorophenyl]-2,2,2-trifluoroethyl N-methylcarbamate]	–
2.5	COc1ncc(-c2cc([C@H](OC(=O)NC3CCOCC3)C(F)(F)F)ccc2F)cc1C(=O)N[C@@H]1C2CCC(/C2=C/C2CC2)[C@@H]1C(=O)Nc1ccc(F)c(C(F)(F)F)c1 (stereo partly drawn) [Example 185, (1S)-1-[3-(5-{[(2R,3S,7Z)-7-(cyclopropyl-methylidene)-3-{[4-fluoro-3-(trifluoromethyl)phenyl]carbamoyl}bicyclo[2.2.1]heptan-2-yl]carbamoyl}-6-methoxypyridin-3-yl)-4-fluorophenyl]-2,2,2-trifluoroethyl N-(oxan-4-yl)carbamate]	–
0.8	COc1ncc(-c2cc([C@H](OC(=O)Nc3ccccc3)C(F)(F)F)ccc2F)cc1C(=O)N[C@@H]1C2CCC(/C2=C/C2CC2)[C@@H]1C(=O)Nc1ccc(F)c(C(F)(F)F)c1 (stereo partly drawn) [Example 186, (1S)-1-[3-(5-{[(2R,3S,7Z)-7-(cyclopropyl-methylidene)-3-{[4-fluoro-3-(trifluoromethyl)phenyl]carbamoyl}bicyclo[2.2.1]heptan-2-yl]carbamoyl}-6-methoxypyridin-3-yl)-4-fluorophenyl]-2,2,2-trifluoroethyl N-phenylcarbamate]	–
0.5	COc1ncc(-c2cc([C@H](OC(=O)NC3CCC3)C(F)(F)F)ccc2F)cc1C(=O)N[C@H]1[C@@H](C(=O)N[C@H](C)C2(C)CC2)[C@H]2CC[C@@H]1/C2=C\C1CC(F)(F)C1 [Example 188, (1S)-1-[3-(5-{[(1R,2R,3S,4R,7Z)-7-[(3,3-difluorocyclobutyl)methylidene]-3-{[(1R)-1-(1-methylcyclopropyl)ethyl]carbamoyl}bicyclo[2.2.1]heptan-2-yl]carbamoyl}-6-methoxypyridin-3-yl)-4-fluorophenyl]-2,2,2-trifluoroethyl N-cyclobutyl-carbamate]	–

From patent publication US20250011288A1 (BRISTOL-MYERS SQUIBB COMPANY, priority 2021, published 2025)
